These results are taken from patent publication US11325916B1, “Spiropyrrolidine derived antiviral agents” (priority 2021, dated 2022).

One assay deals with SARS-CoV-2 3CL-protease (Severe acute respiratory syndrome coronavirus 2 (2019-nCoV) (SARS-CoV-2), UniProt P0DTD1). The assay can be described thus: SARS-CoV-2 3C-Like (3CL) Protease Fluorescence Assay (FRET). In kind it is biochemical.
Assay [1] deals with 229E human corona virus (hCoV). The assay can be described thus: 229E Live Virus Assay (MRC-5 cells, CPE, ATPlite readout). It is filed as cell-based, hCoV-229E. The following applies: Human coronavirus 229E, MRC5, 144 h, read-out: 229E EC50.

Consider `CC(C)C[C@@H](C(=O)N1C[C@]2(C[C@H]1C#N)C(=O)Nc1ccccc12)N(C)C(=O)[C@@H](NC(=O)OCc1ccccc1)C1CCCCC1` [Example 20], for which the IC50 at SARS-CoV-2 3CL-protease is < 100 nM. Besides, the half-maximal effective concentration (EC50) in assay [1] is < 100 nM.
Regarding `CC(C)C[C@@H](C(=O)N1C[C@]2(C[C@H]1C#N)C(=O)Nc1ccccc12)N(C)C(=O)[C@H](CC(C)(C)C)NC(=O)OCc1ccccc1` [Example 25], the concentration for half-maximal inhibition (IC50) against SARS-CoV-2 3CL-protease is < 100 nM. Moreover, the EC50 in assay [1] is < 100 nM.
`CC(C)C[C@@H](C(=O)N1C[C@]2(C[C@H]1C#N)C(=O)Nc1ccccc12)N(C)C(=O)[C@H](CC1CCC1)NC(=O)C(F)(F)F` [Example 27]: at SARS-CoV-2 3CL-protease, the IC50 was < 100 nM. Further, the EC50 in assay [1] is < 100 nM.
In the case of `CC(C)[C@@H](NC(=O)c1cc2c(F)cc(F)c(F)c2[nH]1)C(=O)N[C@@H](CC(C)(C)C)C(=O)N1C[C@]2(C[C@H]1C#N)C(=O)Nc1ccccc12` [Example 93], the IC50 against SARS-CoV-2 3CL-protease is > 1000 nM. Besides, the EC50 in assay [1] was > 1000 nM.
On to `CC(C)(C)C[C@H](NC(=O)[C@H](CC1CC1)NC(=O)OCc1ccccc1)C(=O)N1C[C@]2(C[C@H]1C#N)C(=O)Nc1ccccc12` [Example 94], for which the IC50 against SARS-CoV-2 3CL-protease is < 100 nM. Besides, the EC50 in assay [1] was < 100 nM.
Regarding `[2H]C([2H])([2H])N(C(=O)[C@H](CC1CC1)NC(=O)C1COC1)[C@@H](Cc1ccc(F)cc1)C(=O)N1C[C@]2(C[C@H]1C#N)C(=O)Nc1ccccc12` [Example 77], the half-inhibitory concentration (IC50) against SARS-CoV-2 3CL-protease is < 100 nM. Further, the EC50 in assay [1] was in the range of 100 to 1000 nM.
For `CC(C)C[C@@H](C(=O)N1C[C@]2(C[C@H]1C#N)C(=O)Nc1ccccc12)N1CC[C@H](NC(=O)C(F)(F)F)C1=O` [Example 50] the same measures were 100 to 1000 nM and > 1000 nM.
On the same counts, the results for `CC(C)C[C@@H](C(=O)N1C[C@]2(C[C@H]1C#N)C(=O)Nc1ccccc12)N(C)C(=O)[C@H](CC1CCC1)NC(=O)c1cc2c(F)cc(F)c(F)c2[nH]1` [Example 45] are < 100 nM and 100 to 1000 nM.
On the same counts, the results for `CN(C(=O)[C@@H](NC(=O)OCc1ccccc1)C(C)(C)C)[C@@H](Cc1ccccc1)C(=O)N1C[C@]2(C[C@H]1C#N)C(=O)Nc1ccccc12` [Example 28] are < 100 nM and 100 to 1000 nM.
On to `CC(C)C[C@@H](C(=O)N1C[C@]2(C[C@H]1C#N)C(=O)Nc1ccccc12)N(C)C(=O)[C@H](CC1CCC1)NC(=O)OCc1ccccc1` [Example 24], for which, on SARS-CoV-2 3CL-protease, the IC50 is < 100 nM. Further, the 50% effective concentration (EC50) in assay [1] is < 100 nM.
For `CN(C(=O)[C@H](CC1CC1)NC(=O)C1CC1)[C@@H](CC(C)(C)C)C(=O)N1C[C@]2(C[C@H]1C#N)C(=O)Nc1ccccc12` [Example 76], the half-inhibitory concentration (IC50) against SARS-CoV-2 3CL-protease is < 100 nM. The EC50 in assay [1] is < 100 nM.
In the case of `CN(C(=O)[C@H](CC1CC1)NS(=O)(=O)C1CC1)[C@@H](CC(C)(C)C)C(=O)N1C[C@]2(C[C@H]1C#N)C(=O)Nc1ccccc12` [Example 82], the half-maximal inhibitory concentration (IC50) on SARS-CoV-2 3CL-protease was < 100 nM. Also, the EC50 in assay [1] was < 100 nM.
As to `CC(C)(C)C(NS(=O)(=O)c1ccccc1)C(=O)N1CCC[C@H]1C(=O)N1C[C@]2(C[C@H]1C#N)C(=O)Nc1ccccc12` (some centres unmarked) [Example 57], the IC50 against SARS-CoV-2 3CL-protease is > 1000 nM. In assay [1], the EC50 is > 1000 nM.
For `COC(=O)N[C@@H](CC1CC1)C(=O)N(C)[C@@H](CC(C)C)C(=O)N1C[C@]2(C[C@H]1C#N)C(=O)Nc1ccccc12` [Example 16], the 50% inhibitory concentration (IC50) against SARS-CoV-2 3CL-protease was < 100 nM. In assay [1], the EC50 was < 100 nM.
With `CC(C)[C@H](NC(=O)OC(C)(C)C)C(=O)N(C)[C@@H](Cc1ccccc1)C(=O)N1C[C@]2(C[C@H]1C#N)C(=O)Nc1ccccc12` [Example 47], the half-inhibitory concentration (IC50) on SARS-CoV-2 3CL-protease was < 100 nM. Also, the concentration giving a half-maximal response (EC50) in assay [1] is < 100 nM.
For the compound `CN(C(=O)[C@H](Cc1ccc(F)cc1)NC(=O)c1cc2c(F)cc(F)c(F)c2[nH]1)[C@@H](CC(C)(C)C)C(=O)N1C[C@]2(C[C@H]1C#N)C(=O)Nc1ccccc12` [Example 7], the IC50 against SARS-CoV-2 3CL-protease was < 100 nM. Also, the concentration giving a half-maximal response (EC50) in assay [1] was < 100 nM.
